Measurements reported in patent US9745339B2 (GRAFFINITY PHARMACEUTICALS GMBH, priority 2012, dated 2017).

How the values were obtained:
Details in all cases: L55-73: estimated values based on the knowledge obtained from L01-L54
Bevacizumab = target: T1, Bevacizumab (Homo sapiens, UniProt P01857); test: Microtiter plate chromatography of resins: binding and elution of Bevacizumab
T1 construct: 0.5 mg/ml IgG in PBS pH 7.3; ligand immobilized on SEPHAR; Bevacizumab Yield; other: mass eluted (glycine pH 2.5) / mass injected; kd (dissociation constant, Langmuir isotherm); other: Bevacizumab 0.05-5 mg/ml in PBS pH 7.3, 25° C., at least 3 h; qm (maximum capacity); other: mg Bevacizumab per ml of resin; Langmuir isotherm; t0; fused on or other part: Humanized anti-VEGF-A VH domain joined N-terminally to the IGHG1 constant region (engineered, no UniProt entry)
Procedure: (§1) Resins were assessed in packed mode by microtiter plate chromatography. For each column, approximately 30 μl of resin were transferred to a 384-well filter plate and sealed with appropriate top fits. Columns with rProtein A SEPHAROSE 4 FF and MABSORBENT A2P HF were included as controls.
(§2) Either 3.3 cv of whole IgGs dissolved at 0.5 mg ml^−1 in PBS or undiluted host cell proteins (HCP) were injected onto columns.
(§3) Unbound protein was washed from columns with 5 cv of PBS prior to elution with 5 cv of glycine buffer at pH 2.5. […] During injection of samples, speed was reduced to 10 g and centrifugation time increased to 5-10 min. Effluent fractions were collected in 384-well plates and concentrations of protein were analyzed by Bradford assay. Protein masses mi, mft and me (see below) were calculated as the product of fraction volume and measured protein concentration.
(§4) The fraction of bound protein was calculated as the difference between the total mass of protein injected mi and the mass of protein detected in the flowthrough mft, divided by the total mass of protein injected.
(§5) The yield of protein was calculated as the mass of protein eluted me, divided by the mass of protein injected mi.
The selectivity of resins was calculated as the fraction of bound Bevacizumab antibody BAb, divided by the fraction of bound host cell proteins BHCP.
(§6) The fraction of bound protein and the yield of protein were calculated for each resin based on data for whole IgG-antibodies. In the case of host cell proteins, only the fraction of bound protein is given. Selectivity of resins was calculated from data for Bevacizumab whole IgG and host cell proteins. Due to limited experimental precision, selectivity was truncated for values beyond 10.

Tocilizumab = test: Microtiter plate chromatography of resins: binding and elution of Tocilizumab
Procedure: as §1, §2, §3, §4, §5, §6

Palivizumab = test: Microtiter plate chromatography of resins: binding and elution of Palivizumab
Procedure: as §1, §2, §3, §4, §5, §6

Cetuximab = test: Microtiter plate chromatography of resins: binding and elution of Cetuximab
Procedure: as §1, §2, §3, §4, §5, §6

[1] = tested on: poly-IgG from human serum (h-poly-IgG); test: Microtiter plate chromatography of resins: binding and elution of human poly-IgG
Procedure: as §1, §2, §3, §4, §5, §6

host cell proteins (HCP) = test: Microtiter plate chromatography of resins: binding of host cell proteins; design: species or system CHO cell culture
Procedure: Flowthrough from protein A chromatography (referred to as host cell proteins) was derived from the supernatant of antibody-producing CHO cell culture in serum-free medium. Coomassie brilliant blue dye reagent for Bradford assay was purchased from Thermo Scientific (Bonn/Germany).
as §1, §2, §3, §4, §6

Bevacizumab Bound (Bevacizumab) [%] | Bevacizumab Yield (Bevacizumab) [%] | Tocilizumab Bound (Tocilizumab) [%] | Palivizumab Bound (Palivizumab) [%] | Cetuximab Bound (Cetuximab) [%] | h-poly-IgG Bound [1] [%] | Compound | HCP Bound (host cell proteins (HCP)) [%]
100 | >80 | >95 | >80 | 100 | >80 | NCCCn1cnc2cc(C(=O)Nc3nc(-c4ccco4)ns3)ccc21 [Ligand L55, 1-(3-Amino-1-propyl)benzimidazole-5-carboxylic acid N-[3-(2-furyl)-1,2,4-thiadiazol-5-yl] amide] | <40
100 | >80 | >95 | >80 | 100 | >80 | NCCCn1cnc2cc(C(=O)Nc3nnc(-c4ccoc4)s3)ccc21 [Ligand L56, 1-(3-Amino-1-propyl)benzimidazole-5-carboxylic acid N-[5-(3-furyl)-1,3,4-thiadiazol-2-yl] amide] | <40
100 | >80 | >95 | >80 | 100 | >80 | NCCCn1cnc2cc(C(=O)Nc3nc(-c4ccco4)cs3)ccc21 [Ligand L57, 1-(3-Amino-1-propyl)benzimidazole-5-carboxylic acid N-[4-(2-furyl)thiazol-2-yl] amide] | <40
100 | >80 | >95 | >80 | 100 | >80 | NCCCn1cnc2cc(C(=O)Nc3ncc(-c4ccco4)s3)ccc21 [Ligand L58, 1-(3-Amino-1-propyl)benzimidazole-5-carboxylic acid N-[5-(2-furyl)thiazol-2-yl] amide] | <40
100 | >80 | >90 | >60 | >95 | >80 | NCCCn1cnc2cc(C(=O)Nc3ccc(-c4ccco4)nn3)ccc21 [Ligand L59, 1-(3-Amino-1-propyl)benzimidazole-5-carboxylic acid N-[6-(2-furyl)pyridazin-3-yl] amide] | <40
100 | >80 | >95 | >80 | 100 | >80 | Cc1nc2cc(C(=O)Nc3nc(-c4ccco4)ns3)ccc2n1CCCN [Ligand L60, 1-(3-Amino-1-propyl)-2-methylbenzimidazole-5-carboxylic acid N-[3-(2-furyl)-1,2,4-thiadiazol-5-yl] amide] | <40
100 | >80 | >95 | >80 | 100 | >80 | Cc1nc2cc(C(=O)Nc3nnc(-c4ccoc4)s3)ccc2n1CCCN [Ligand L61, 1-(3-Amino-1-propyl)-2-methylbenzimidazole-5-carboxylic acid N-[5-(3-furyl)-1,3,4-thiadiazol-2-yl] amide] | <40
100 | >80 | >95 | >80 | 100 | >80 | Cc1nc2cc(C(=O)Nc3nc(-c4ccco4)cs3)ccc2n1CCCN [Ligand L62, 1-(3-Amino-1-propyl)-2-methylbenzimidazole-5-carboxylic acid N-[4-(2-furyl)thiazol-2-yl] amide] | <40
100 | >80 | >95 | >80 | 100 | >80 | Cc1nc2cc(C(=O)Nc3ncc(-c4ccco4)s3)ccc2n1CCCN [Ligand L63, 1-(3-Amino-1-propyl)-2-methylbenzimidazole-5-carboxylic acid N-[5-(2-furyl)thiazol-2-yl] amide] | <20
100 | >80 | >90 | >60 | >95 | >80 | Cc1nc2cc(C(=O)Nc3ccc(-c4ccco4)nn3)ccc2n1CCCN [Ligand L64, 1-(3-Amino-1-propyl)-2-methylbenzimidazole-5-carboxylic acid N-[6-(2-furyl)pyridazin-3-yl] amide] | <20
100 | >80 | >95 | >80 | 100 | >80 | CCc1nc2cc(C(=O)Nc3nc(-c4ccco4)ns3)ccc2n1CCCN [Ligand L65, 1-(3-Amino-1-propyl)-2-ethylbenzimidazole-5-carboxylic acid N-[3-(2-furyl)-1,2,4-thiadiazol-5-yl] amide] | <30
100 | >80 | >95 | >80 | 100 | >80 | CCc1nc2cc(C(=O)Nc3nnc(-c4ccoc4)s3)ccc2n1CCCN [Ligand L66, 1-(3-Amino-1-propyl)-2-ethylbenzimidazole-5-carboxylic acid N-[5-(3-furyl)-1,3,4-thiadiazol-2-yl] amide] | <30
100 | >80 | >95 | >80 | 100 | >80 | CCc1nc2cc(C(=O)Nc3nc(-c4ccco4)cs3)ccc2n1CCCN [Ligand L67, 1-(3-Amino-1-propyl)-2-ethylbenzimidazole-5-carboxylic acid N-[4-(2-furyl)thiazol-2-yl] amide] | <30
100 | >80 | >95 | >80 | 100 | >80 | CCc1nc2cc(C(=O)Nc3ncc(-c4ccco4)s3)ccc2n1CCCN [Ligand L68, 1-(3-Amino-1-propyl)-2-ethylbenzimidazole-5-carboxylic acid N-[5-(2-furyl)thiazol-2-yl] amide] | <30
100 | >80 | >90 | >60 | >95 | >80 | CCc1nc2cc(C(=O)Nc3ccc(-c4ccco4)nn3)ccc2n1CCCN [Ligand L69, 1-(3-Amino-1-propyl)-2-ethylbenzimidazole-5-carboxylic acid N-[6-(2-furyl)pyridazin-3-yl]amide] | <30
100 | >80 | >80 | >50 | >80 | >80 | NCCCNc1nc(-c2ccc(C(=O)Nc3nnc(-c4ccco4)s3)cc2)cs1 [Ligand L70, 4-[2-(3-Amino-1-propylamino)thiazol-4-yl]benzoic acid N-[5-(2-furyl)-1,3,4-thiadiazol-2-yl]amide] | <40
100 | >80 | >90 | >60 | >95 | >80 | Cc1nc2cc(C(=O)Nc3nnc(-c4ccno4)s3)ccc2n1CCCN [Ligand L71, 1-(3-Amino-1-propyl)-2-methylbenzimidazole-5-carboxylic acid N-[5-(5-isoxazolyl)-1,3,4-thiadiazol-2-yl] amide] | <20
100 | >80 | >90 | >60 | >95 | >80 | Cc1nc2cc(C(=O)Nc3nnc(-c4cnco4)s3)ccc2n1CCCN [Ligand L72, 1-(3-Amino-1-propyl)-2-methylbenzimidazole-5-carboxylic acid N-[5-(5-oxazolyl)-1,3,4-thiadiazol-2-yl] amide] | <20
